From ChEMBL document CHEMBL6121021, “Design and Synthesis of Topoisomerases-Histone Deacetylase Dual Targeted Quinoline-Bridged Hydroxamates as Anticancer Agents” (J Med Chem, 2025)
Activity calls are given as the source filed them. The rule behind the calls is not given here.

Key:
[1] = Metabolic stability in human hepatocytes assessed as half life at 2 uM measured upto 120 min by LC-MS/MS analysis; assay type: ADME, cell-based, Hepatocyte
MDA-MB-231 [2] = test: Anti-cancer activity against human MDA-MB-231 cells assessed as decrease in p53 level at 1 to 3 uM incubated for 48 hrs by immunoblot analysis; assay type: functional, cell-based; conditions: dose 1-3 µM
[3] = Drug metabolism in human hepatocytes assessed as O-dealkylation M5 metabolite formation at 10 uM by LC-MS/MS analysis; assay type: ADME, cell-based, Hepatocyte
A549 [4] = test: Antitumor activity against human A549 cells xenografted in athymic nude Crl:NU-Foxn1nu mouse assessed as tumor regression at 30 mg/kg, po administered twice a week for 1 month; assay type: functional, organism-based; conditions: time 1.0 months
A549 [5] = test: Anti-cancer activity against human A549 3D cell culture model at sub- IC50 incubated for 17 days with replacement of medium containing compound on every third day; assay type: functional, cell-based; conditions: time 17.0 day
Histone deacetylase 8 = molecular target: T1, Histone deacetylase 8 (Homo sapiens, UniProt Q9BY41); test: Inhibition of HDAC8 (unknown origin) by fluorometric assay
T1 sequence (Q9BY41 whole entry): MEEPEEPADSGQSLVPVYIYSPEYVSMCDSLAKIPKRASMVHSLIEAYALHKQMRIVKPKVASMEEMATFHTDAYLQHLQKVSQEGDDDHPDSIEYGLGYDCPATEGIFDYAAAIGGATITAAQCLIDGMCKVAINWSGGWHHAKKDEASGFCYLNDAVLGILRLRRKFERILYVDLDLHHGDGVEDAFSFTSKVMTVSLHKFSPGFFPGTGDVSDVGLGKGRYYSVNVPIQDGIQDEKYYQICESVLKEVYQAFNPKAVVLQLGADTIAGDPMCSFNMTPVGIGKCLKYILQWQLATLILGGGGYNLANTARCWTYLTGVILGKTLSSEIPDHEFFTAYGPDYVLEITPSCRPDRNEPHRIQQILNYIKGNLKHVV

A549 [6] = test: In vivo cytotoxicity against human A549 cells xenografted in athymic nude Crl:NU-Foxn1nu mouse at 15 to 30 mg/kg, po administered twice a week for 1 month; assay type: functional, organism-based; conditions: dose 15-30 mg/kg, time 1.0 months
[7] = molecular target: DNA topoisomerase 2-alpha (Homo sapiens, UniProt P11388); test: Inhibition of human Topo II-alpha-mediated decatenation of kDNA incubated for 30 mins
DNA topoisomerase 2-alpha, sequence (P11388 whole entry): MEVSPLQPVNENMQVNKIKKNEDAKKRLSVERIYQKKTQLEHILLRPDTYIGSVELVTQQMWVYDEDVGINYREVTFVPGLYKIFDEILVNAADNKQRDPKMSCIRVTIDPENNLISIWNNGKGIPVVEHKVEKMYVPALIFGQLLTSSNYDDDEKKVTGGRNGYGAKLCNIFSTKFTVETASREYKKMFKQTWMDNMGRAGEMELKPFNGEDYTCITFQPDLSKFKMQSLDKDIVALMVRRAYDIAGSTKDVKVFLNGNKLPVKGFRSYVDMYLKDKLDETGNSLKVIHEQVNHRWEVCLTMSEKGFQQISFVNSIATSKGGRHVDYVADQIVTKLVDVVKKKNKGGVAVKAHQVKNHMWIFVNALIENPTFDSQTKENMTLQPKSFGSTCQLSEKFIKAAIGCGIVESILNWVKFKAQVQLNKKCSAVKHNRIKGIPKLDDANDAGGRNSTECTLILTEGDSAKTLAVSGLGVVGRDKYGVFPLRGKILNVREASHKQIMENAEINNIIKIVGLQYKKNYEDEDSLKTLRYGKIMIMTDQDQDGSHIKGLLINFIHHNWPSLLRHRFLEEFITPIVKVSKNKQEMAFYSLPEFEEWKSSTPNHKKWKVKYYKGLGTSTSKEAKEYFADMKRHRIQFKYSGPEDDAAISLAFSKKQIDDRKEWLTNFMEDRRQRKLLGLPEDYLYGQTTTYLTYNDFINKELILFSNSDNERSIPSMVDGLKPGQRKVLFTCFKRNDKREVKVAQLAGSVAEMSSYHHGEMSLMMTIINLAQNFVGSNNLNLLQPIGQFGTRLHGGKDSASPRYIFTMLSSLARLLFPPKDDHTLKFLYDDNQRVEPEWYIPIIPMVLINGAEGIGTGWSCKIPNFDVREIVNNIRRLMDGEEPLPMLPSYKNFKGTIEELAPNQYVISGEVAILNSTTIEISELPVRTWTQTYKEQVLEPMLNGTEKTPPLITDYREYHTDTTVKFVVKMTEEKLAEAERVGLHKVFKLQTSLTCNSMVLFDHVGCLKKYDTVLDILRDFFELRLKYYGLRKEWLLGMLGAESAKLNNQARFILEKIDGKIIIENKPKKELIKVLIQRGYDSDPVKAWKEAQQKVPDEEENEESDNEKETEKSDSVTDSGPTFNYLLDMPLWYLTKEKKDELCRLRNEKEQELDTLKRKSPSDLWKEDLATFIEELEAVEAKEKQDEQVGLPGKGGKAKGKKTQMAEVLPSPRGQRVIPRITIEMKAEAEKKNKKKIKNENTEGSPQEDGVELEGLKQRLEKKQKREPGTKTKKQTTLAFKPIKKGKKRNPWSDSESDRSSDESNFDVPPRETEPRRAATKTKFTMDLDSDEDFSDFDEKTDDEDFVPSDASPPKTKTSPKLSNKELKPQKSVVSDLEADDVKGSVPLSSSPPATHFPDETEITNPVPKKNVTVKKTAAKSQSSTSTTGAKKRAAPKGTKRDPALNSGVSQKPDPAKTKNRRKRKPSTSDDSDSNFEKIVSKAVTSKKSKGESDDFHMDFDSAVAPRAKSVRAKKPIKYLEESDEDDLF

A549 [8] = test: In vivo inhibition of epithelial-mesenchymal transition in human A549 cells xenografted in athymic nude Crl:NU-Foxn1nu mouse assessed as decrease in Twist mRNA level at 30 mg/kg, po administered twice a week for 1 month by qPCR analysis; assay type: functional, organism-based; conditions: time 1.0 months
Histone deacetylase 11 = Histone deacetylase 11 (Homo sapiens, UniProt Q96DB2); test: Inhibition of recombinant human HDAC11 by fluorogenic assay
Histone deacetylase 11, sequence (Q96DB2 whole entry): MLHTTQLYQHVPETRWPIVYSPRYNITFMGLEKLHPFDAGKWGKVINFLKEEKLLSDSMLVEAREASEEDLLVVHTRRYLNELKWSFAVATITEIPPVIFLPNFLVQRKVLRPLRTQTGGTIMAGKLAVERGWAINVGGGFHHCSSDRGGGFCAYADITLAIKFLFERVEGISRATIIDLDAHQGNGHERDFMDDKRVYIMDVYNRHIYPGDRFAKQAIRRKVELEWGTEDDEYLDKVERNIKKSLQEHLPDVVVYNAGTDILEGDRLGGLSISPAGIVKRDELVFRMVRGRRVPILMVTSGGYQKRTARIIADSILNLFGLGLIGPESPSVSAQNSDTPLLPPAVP

A549 [9] = test: In vivo induction of apoptosis in human A549 cells xenografted in athymic nude Crl:NU-Foxn1nu mouse assessed as increase in Bax level at 30 mg/kg, po administered twice a week for 1 month by immunoblot analysis; assay type: functional, organism-based; conditions: time 1.0 months
[10] = Metabolic stability in mouse hepatocytes assessed as half life at 2 uM measured upto 120 min by LC-MS/MS analysis; assay type: ADME, cell-based, Hepatocyte
Histone deacetylase 5 = Histone deacetylase 5 (Homo sapiens, UniProt Q9UQL6); test: Inhibition of His-tagged recombinant human HDAC5 catalytic domain by fluorogenic assay
Histone deacetylase 5, sequence (Q9UQL6 whole entry, the tested form may be a part): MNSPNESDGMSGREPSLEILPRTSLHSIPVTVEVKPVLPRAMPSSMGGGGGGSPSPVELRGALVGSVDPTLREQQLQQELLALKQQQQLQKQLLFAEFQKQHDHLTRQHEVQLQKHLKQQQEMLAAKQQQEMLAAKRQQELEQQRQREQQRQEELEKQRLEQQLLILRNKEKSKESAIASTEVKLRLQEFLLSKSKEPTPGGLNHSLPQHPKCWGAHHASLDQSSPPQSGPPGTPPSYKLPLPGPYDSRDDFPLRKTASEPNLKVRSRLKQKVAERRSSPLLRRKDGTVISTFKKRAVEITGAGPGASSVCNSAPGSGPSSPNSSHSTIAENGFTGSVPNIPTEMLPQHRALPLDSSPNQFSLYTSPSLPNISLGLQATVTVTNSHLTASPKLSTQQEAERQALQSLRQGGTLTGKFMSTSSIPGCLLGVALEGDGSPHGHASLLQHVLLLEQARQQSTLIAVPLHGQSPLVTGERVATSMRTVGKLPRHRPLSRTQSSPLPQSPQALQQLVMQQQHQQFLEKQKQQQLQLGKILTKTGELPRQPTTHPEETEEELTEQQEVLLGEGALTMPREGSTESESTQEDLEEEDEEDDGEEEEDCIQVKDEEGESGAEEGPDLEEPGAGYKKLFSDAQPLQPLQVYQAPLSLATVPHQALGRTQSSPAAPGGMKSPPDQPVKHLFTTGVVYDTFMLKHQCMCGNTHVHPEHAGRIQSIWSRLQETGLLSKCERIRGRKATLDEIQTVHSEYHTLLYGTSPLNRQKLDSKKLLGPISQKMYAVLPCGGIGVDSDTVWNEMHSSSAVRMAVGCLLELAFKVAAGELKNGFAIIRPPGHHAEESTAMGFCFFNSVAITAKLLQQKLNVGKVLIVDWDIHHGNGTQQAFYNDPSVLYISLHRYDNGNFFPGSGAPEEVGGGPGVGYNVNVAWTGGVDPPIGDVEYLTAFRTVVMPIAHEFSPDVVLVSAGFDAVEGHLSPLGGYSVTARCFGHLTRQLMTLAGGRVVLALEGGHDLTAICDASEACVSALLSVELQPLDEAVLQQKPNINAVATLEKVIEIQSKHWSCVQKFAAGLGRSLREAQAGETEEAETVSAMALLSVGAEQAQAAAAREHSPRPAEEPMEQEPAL

HEK293 = test: Antiproliferative activity against HEK293 cells at 10 uM incubated for 48 hrs by MTT assay; assay type: toxicity, cell-based; conditions: human, hek293, 48 h
NCI-H1299 = test: cells; assay type: functional, cell-based; conditions: Homo sapiens, NCI-H1299, 48 h
MDA-MB-231 [11] = test: Anti-cancer activity against human MDA-MB-231 cells assessed as decrease in CDK-4 level at 1 to 10 uM incubated for 48 hrs by immunoblot analysis; assay type: functional, cell-based; conditions: dose 1-10 µM
A549 [12] = test: In vivo anti-migratory activity in human A549 cells xenografted in athymic nude Crl:NU-Foxn1nu mouse assessed as decrease in vimentin mRNA level at 30 mg/kg, po administered twice a week for 1 month by qPCR analysis; assay type: functional, organism-based; conditions: time 1.0 months
[13] = Drug metabolism in human hepatocytes assessed as beta-oxidation M2 metabolite formation at 10 uM by LC-MS/MS analysis; assay type: ADME, cell-based, Hepatocyte
A549 [14] = test: In vivo anti-metastatic activity in human A549 cells xenografted in athymic nude Crl:NU-Foxn1nu mouse assessed as decrease in ZEB1 mRNA level at 30 mg/kg, po administered twice a week for 1 month by qPCR analysis; assay type: functional, organism-based; conditions: time 1.0 months
A549 [15] = test: cells; conditions: Homo sapiens, A549, 48 h
[16] = Drug metabolism in human hepatocytes assessed as direct glucuronide conjugate M9 metabolite formation at 10 uM by LC-MS/MS analysis; assay type: ADME, cell-based, Hepatocyte
MCF7 = test: cells; assay type: functional, cell-based; conditions: Homo sapiens, MCF7, 48 h
Histone deacetylase 2 = Histone deacetylase 2 (Homo sapiens, UniProt Q92769)
Histone deacetylase 2, sequence (Q92769 whole entry): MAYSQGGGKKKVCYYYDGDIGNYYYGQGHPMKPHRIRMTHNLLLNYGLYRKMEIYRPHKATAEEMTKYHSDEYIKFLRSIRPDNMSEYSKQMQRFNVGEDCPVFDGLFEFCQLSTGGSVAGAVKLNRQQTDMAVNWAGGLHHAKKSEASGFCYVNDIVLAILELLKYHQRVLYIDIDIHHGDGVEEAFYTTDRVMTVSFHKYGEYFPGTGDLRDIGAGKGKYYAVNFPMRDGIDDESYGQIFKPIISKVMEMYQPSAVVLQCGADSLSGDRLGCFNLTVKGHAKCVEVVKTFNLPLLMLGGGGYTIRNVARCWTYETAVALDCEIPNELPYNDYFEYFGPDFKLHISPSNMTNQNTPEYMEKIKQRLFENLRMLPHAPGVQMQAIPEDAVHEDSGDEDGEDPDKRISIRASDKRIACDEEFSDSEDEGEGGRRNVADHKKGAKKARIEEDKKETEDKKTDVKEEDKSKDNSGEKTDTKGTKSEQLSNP

[17] = Antiproliferative activity against human NCI-H1975 cells harboring EGFR T790M mutant incubated for 48 hrs by MTT assay; assay type: functional, cell-based; conditions: NCI-H1975, 48 h
A549 [18] = test: In vivo induction of apoptosis in human A549 cells xenografted in athymic nude Crl:NU-Foxn1nu mouse assessed as increase in Bcl-2 level at 30 mg/kg, po administered twice a week for 1 month by immunoblot analysis; assay type: functional, organism-based; conditions: time 1.0 months
[19] = Drug metabolism in human hepatocytes assessed as oxidative deamination M1 metabolite formation at 10 uM by LC-MS/MS analysis; assay type: ADME, cell-based, Hepatocyte
[20] = Drug metabolism in human hepatocytes assessed as formation of O-demethylated M6 metabolite conjugated with sulphate at 10 uM by LC-MS/MS analysis; assay type: ADME, cell-based, Hepatocyte
[21] = Toxicity in athymic nude Crl:NU-Foxn1nu mouse xenografted with human A549 cells assessed as animal survival at 30 mg/kg, po administered twice a week for 1 month; assay type: organism-based; conditions: in vivo, 730 h, time 1 months
Cytochrome P450 2C19 = Cytochrome P450 2C19 (Homo sapiens, UniProt P33261); test: Inhibition of CYP2C19 in human liver microsomes preincubated for 10 mins followed by NADPH addition measured after 5 mins by LC-MS/MS analysis; assay type: ADME, Microsome
Cytochrome P450 2C19, sequence (P33261 whole entry): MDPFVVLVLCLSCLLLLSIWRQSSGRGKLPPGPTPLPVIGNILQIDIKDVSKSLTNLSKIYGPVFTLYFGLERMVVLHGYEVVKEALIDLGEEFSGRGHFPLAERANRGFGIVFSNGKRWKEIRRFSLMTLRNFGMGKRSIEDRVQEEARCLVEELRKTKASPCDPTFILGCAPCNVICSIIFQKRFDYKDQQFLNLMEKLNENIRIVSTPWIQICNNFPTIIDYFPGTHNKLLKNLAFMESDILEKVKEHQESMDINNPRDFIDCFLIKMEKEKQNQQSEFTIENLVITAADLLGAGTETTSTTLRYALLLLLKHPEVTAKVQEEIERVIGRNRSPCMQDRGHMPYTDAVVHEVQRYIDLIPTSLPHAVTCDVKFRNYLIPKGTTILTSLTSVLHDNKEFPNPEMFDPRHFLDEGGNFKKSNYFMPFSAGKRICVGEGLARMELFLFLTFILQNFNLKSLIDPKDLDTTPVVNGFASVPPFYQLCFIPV

[22] = Drug metabolism in human hepatocytes assessed as glucuronide conjugated M8 metabolite formation at 10 uM by LC-MS/MS analysis; assay type: ADME, cell-based, Hepatocyte
A549 [23] = test: Induction of cell cycle arrest in human A549 cells assessed as accumulation at G1 phase by PI staining based flow cytometry; assay type: functional
A549 [24] = test: Induction of cell cycle arrest in human A549 cells assessed as accumulation at G2/M phase by PI staining based flow cytometry; assay type: functional
MDA-MB-231 [25] = test: Anti-cancer activity against human MDA-MB-231 cells assessed as decrease in p21 level at 1 uM incubated for 48 hrs by immunoblot analysis; assay type: functional, cell-based
MDA-MB-231 [26] = test: Anti-cancer activity against human MDA-MB-231 cells assessed as decrease in p53 level at 10 uM incubated for 48 hrs by immunoblot analysis; assay type: functional, cell-based
MDA-MB-231 [27] = test: Anti-cancer activity against human MDA-MB-231 cells assessed as decrease in p21 level at higher concentration incubated for 48 hrs by immunoblot analysis; assay type: functional, cell-based

With COc1ccc(-c2ccc3cc(OCCCCCC(=O)NO)ccc3n2)cc1 the half-life at 2 µM [1] was 45.7 min, the Activity (MDA-MB-231 [2]) was “Active” and the Drug metabolism [3] was “metabolite_detected”. The Activity (A549 [4]) was “Active; Exerted Maximum Effect”, the Activity (A549 [5]) was “Active; Exhibited Commendable Decrease In Mass Of 3D Sphere” and the IC50 (Histone deacetylase 8) was over 0.5 µM. The Activity (A549 [6]) was “Active”, the IC50 [7] was 67.8 µM and the inhibition (A549 [8]) was “Active”. For the same molecule, the IC50 (Histone deacetylase 11) was 0.0581 µM, the Activity (A549 [9]) was “Active” and the half-life at 2 µM [10] was 74.3 min. For the same molecule, the IC50 (Histone deacetylase 5) was 0.0882 µM, the Activity (HEK293) was “Non-toxic” and the IC50 (NCI-H1299) was 1.68 µM. The Activity (MDA-MB-231 [11]) was “Active”, the Activity (A549 [12]) was “Active” and the Drug metabolism [13] was “metabolite_detected”. For the same molecule, the Activity (A549 [14]) was “Active”, the IC50 (A549 [15]) was 0.702 µM and the Drug metabolism [16] was “metabolite_detected”. For the same molecule, the IC50 (MCF7) was 1.98 µM, the IC50 (Histone deacetylase 2) was 0.0774 µM and the IC50 [17] was under 0.25 µM. The Activity (A549 [18]) was “Active”, the Drug metabolism [19] was “metabolite_detected” and the Drug metabolism [20] was “metabolite_detected”. For the same molecule, the Activity [21] was “Non-toxic”, the IC50 (Cytochrome P450 2C19) was 18 µM and the Drug metabolism [22] was “metabolite_detected”.
For COc1ccc(-c2ccc3ccc(OCCCCCCC(=O)NO)cc3n2)cc1I, the Activity (A549 [23]) was “Active”, the Activity (A549 [24]) was “Active” and the Activity (A549 [5]) was “Active; Exhibited Potent Effect”. For the same molecule, the IC50 (Histone deacetylase 8) was over 0.5 µM, the Activity (MDA-MB-231 [25]) was “inactive” and the IC50 (NCI-H1299) was 1.63 µM. For the same molecule, the IC50 (A549 [15]) was 1.97 µM, the IC50 (MCF7) was 3.02 µM and the Activity (MDA-MB-231 [26]) was “inactive”. The Activity (MDA-MB-231 [27]) was “Active”.
